In PubChem BioAssay (NCI) one finds TGI data, which are given here for 7 molecules.

Among the test systems are M14 melanoma; U251 CNS; A498 renal; BT-549 breast; HS 578T breast; MDA-N; SK-MEL-5 melanoma; SNB-19 CNS; EKVX NSCLC; CCRF-CEM leukemia; MDA-MB-435; ACHN renal; RPMI-8226 leukemia; MDA-MB-231 breast; NCI-H226 lung; SK-MEL-2 melanoma; OVCAR-5 ovarian; SF-539 CNS; UACC-257 melanoma; DU-145 prostate.
Holding throughout (experiment): NCI tumour cell line growth inhibition, 48 h

The structures appear in SMILES notation.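 Cells were grown in 96-well plates and exposed to each compound for 48 hours at five concentrations; endpoints were interpolated linearly between bracketing concentrations, or set to the highest concentration if not reached. TGI marks complete inhibition of growth.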

Consider `CCOC(=O)C1(N)CCc2[nH][nH]c(=O)c2C1` (stereo unspecified), for which the TGI with M14 melanoma, with U251 CNS, in the experiment on A498 renal, in the experiment on BT-549 breast, in the experiment with HS 578T breast and in the experiment with MDA-N was greater than 100 µM throughout. In addition, the TGI in the experiment with SK-MEL-5 melanoma, in the experiment on SNB-19 CNS, in the experiment with EKVX NSCLC, in the experiment on CCRF-CEM leukemia, with MDA-MB-435 and in the experiment with ACHN renal was greater than 100 µM in each case. The TGI in the experiment with RPMI-8226 leukemia, with MDA-MB-231 breast, in the experiment on NCI-H226 lung, in the experiment with SK-MEL-2 melanoma, in the experiment on OVCAR-5 ovarian and with SF-539 CNS was greater than 100 µM each time. Besides, the TGI in the experiment with UACC-257 melanoma was greater than 100 µM.

On to `O=c1/c(=C/c2ccc([N+](=O)[O-])o2)sc2n1[C@@H](c1ccc(Cl)cc1)C=C(c1cc(F)c(Cl)cc1Cl)N=2`, for which the TGI with M14 melanoma is 29.1 µM; in the experiment with U251 CNS, 21.7 µM; in the experiment on A498 renal, greater than 100 µM; in the experiment on BT-549 breast, 28.7 µM; in the experiment with HS 578T breast, greater than 100 µM; in the experiment on MDA-N it was 23.3 µM. Moreover, the TGI with SK-MEL-5 melanoma is 28.8 µM; with SNB-19 CNS, 33.6 µM; in the experiment with CCRF-CEM leukemia it was greater than 100 µM; in the experiment on MDA-MB-435, 36.2 µM; in the experiment on ACHN renal it was 32.6 µM; in the experiment with RPMI-8226 leukemia, 25.9 µM. Also, the TGI in the experiment on MDA-MB-231 breast was 18.5 µM; in the experiment on NCI-H226 lung, 32.4 µM; with SK-MEL-2 melanoma, 17.6 µM; in the experiment on OVCAR-5 ovarian, 30.6 µM; in the experiment on SF-539 CNS, 69 µM; in the experiment with DU-145 prostate, 39.9 µM. In the experiment on UACC-257 melanoma, this molecule returned a TGI of 30.6 µM.

With `O=C(CCCN1CCC2(CC1)CC(=O)N(N1CCOCC1)C2=O)c1ccc(F)cc1`, the TGI in the experiment on M14 melanoma, with U251 CNS, in the experiment on A498 renal, in the experiment on BT-549 breast, in the experiment with HS 578T breast and in the experiment with MDA-N was greater than 100 µM each time. In addition, the TGI with SK-MEL-5 melanoma, in the experiment with SNB-19 CNS, in the experiment on CCRF-CEM leukemia, in the experiment on MDA-MB-435, in the experiment on ACHN renal and in the experiment with RPMI-8226 leukemia was greater than 100 µM in each case. In addition, the TGI in the experiment on MDA-MB-231 breast, with NCI-H226 lung, in the experiment with SK-MEL-2 melanoma, in the experiment on OVCAR-5 ovarian, in the experiment on SF-539 CNS and in the experiment on DU-145 prostate was greater than 100 µM throughout. The TGI in the experiment with UACC-257 melanoma was greater than 100 µM.

As for `O=C(O)c1nc2ccc(C(F)(F)F)cc2nc1NCc1ccc(Cl)c(Cl)c1`, the TGI was 31.6 µM in the experiment with M14 melanoma; 28.3 µM in the experiment on U251 CNS; 34.6 µM in the experiment with A498 renal; 33.1 µM with BT-549 breast; 35.1 µM in the experiment on MDA-N; 37.5 µM with SK-MEL-5 melanoma. Also, the TGI was 25.1 µM in the experiment on SNB-19 CNS; 30.4 µM in the experiment with EKVX NSCLC; greater than 100 µM in the experiment with CCRF-CEM leukemia; 30 µM in the experiment on MDA-MB-435; 30.5 µM in the experiment with ACHN renal; greater than 100 µM in the experiment with RPMI-8226 leukemia. Besides, the TGI in the experiment on MDA-MB-231 breast amounted to 34.5 µM; in the experiment with NCI-H226 lung it was 44.1 µM; in the experiment with SK-MEL-2 melanoma it was 27.8 µM; in the experiment with OVCAR-5 ovarian, 26.3 µM; with SF-539 CNS, 36.6 µM; in the experiment on DU-145 prostate, 32.5 µM. This molecule showed a TGI with UACC-257 melanoma of 54.3 µM.

On to `COC(=O)[C@H](Cc1c[nH]c2ccccc12)NP(=O)(O)OC[C@H]1O[C@@H](n2cc(C)c(=O)[nH]c2=O)C[C@@H]1N=[N+]=[N-]`, for which the TGI in the experiment on M14 melanoma, with U251 CNS, in the experiment on BT-549 breast, in the experiment on HS 578T breast, in the experiment on MDA-N and in the experiment with SK-MEL-5 melanoma was greater than 100 µM throughout. The TGI with SNB-19 CNS, in the experiment on EKVX NSCLC, in the experiment on CCRF-CEM leukemia, with MDA-MB-435, with RPMI-8226 leukemia and with MDA-MB-231 breast was greater than 100 µM throughout. Further, the TGI with NCI-H226 lung, in the experiment on SK-MEL-2 melanoma, in the experiment with OVCAR-5 ovarian, in the experiment on DU-145 prostate and with UACC-257 melanoma was greater than 100 µM in each case.

Consider `CC1(C)C2CC(O)C1CCC2=O` (stereo unspecified), for which the TGI in the experiment with M14 melanoma, in the experiment with U251 CNS, in the experiment with A498 renal, in the experiment with BT-549 breast, in the experiment on HS 578T breast and with MDA-N was greater than 100 µM each time. The TGI in the experiment with SK-MEL-5 melanoma, with SNB-19 CNS, in the experiment on CCRF-CEM leukemia, in the experiment on MDA-MB-435, with ACHN renal and in the experiment with RPMI-8226 leukemia was greater than 100 µM each time. The TGI in the experiment on MDA-MB-231 breast, in the experiment with NCI-H226 lung, in the experiment with SK-MEL-2 melanoma, in the experiment with OVCAR-5 ovarian, with SF-539 CNS and in the experiment with DU-145 prostate was greater than 100 µM each time. The molecule further displayed a TGI in the experiment with UACC-257 melanoma greater than 100 µM.

Consider `O=C(CCCN1CCC(Nc2ccccc2)(c2nnnn2C2CCCCC2)CC1)c1ccc(F)cc1`, for which the TGI was 3.98 µM in the experiment with M14 melanoma; 18 µM in the experiment on U251 CNS; 20.4 µM in the experiment on BT-549 breast; 29.2 µM with HS 578T breast; 18.1 µM with MDA-N; 3 µM with SK-MEL-5 melanoma. For the same molecule, the TGI turned out to be 21.4 µM in the experiment with SNB-19 CNS; 9.53 µM with EKVX NSCLC; 44.6 µM with CCRF-CEM leukemia; 19.4 µM in the experiment on MDA-MB-435; 16.7 µM with ACHN renal; 25.1 µM in the experiment on RPMI-8226 leukemia. For the same molecule, the TGI stood at 24.2 µM with MDA-MB-231 breast; 36.5 µM with NCI-H226 lung; 23.7 µM in the experiment on SK-MEL-2 melanoma; 19.6 µM in the experiment with OVCAR-5 ovarian; 5.66 µM with SF-539 CNS; 15.5 µM in the experiment with DU-145 prostate. The molecule also showed a TGI in the experiment with UACC-257 melanoma of 6.65 µM.
